Reference: patent publication US20240252654A1, “IMPROVED SMALL MOLECULES” (University of Dundee, priority 2020, published 2024)

Tests used:
BRD2 and BRD4 = assay: Dose-response degradation immunoblot in RCC4-HA-VHL cells; type: cell-based; settings: 6 h, 500 nM to 6.4 pM
Description: Compound MN674 was designed and synthesised as another analogue of SIM1. […] MN674 was tested in the mammalian cell line RCC4-HA-VHL in a dose-response degradation assay. The assay involved immunoblots (see FIG. 21 for raw western blot data and FIG. 22 for dose-response curves) displaying 6 hour treatments of eight 5-fold serial dilutions from 500 nM to 6.4 pM of each compound. […] RCC4-HA-VHL cells were exposed to eight 5-fold serial dilutions (from 500 nM to […]) of heterotrivalent Bet-Bet-VHL PROTACs SIM1 and MN674 for 6 hour treatments, before lysates were harvested and analysed on immunoblots (FIG. 21). A Bio-Rad MP imaging system was used for fluorescence detection of BRD2 (IRDye 800CW), BRD4_long (IRDye 800CW), BRD4_short (IRDye 800CW) and house-keeping gene Tubulin (Rhodamine). The intensities of the bands were determined using ImageLab software and all BET protein intensities normalised to Tubulin in order to convert them into a percentage band intensity rationalised to the 0.1% DMSO-only control. These intensities were then plotted in GraphPad Prism for Dose-Response [Inhibition] Variable slope (four parameter) analyses to generate the curves for BRD2 (FIG. 22a) and BRD4 (FIG. 22b), to determine the DC50 values presented in Table 3 (FIG. 20). The experiment is representative of n=2 i.e. biological duplicate.

MV4; 11 cells = assay: Correlative cell viability in cMyc-HiBiT MV4;11 cells (CellTiter-Glo); type: cell-based; settings: 1 nM, after 6 h
Description: Monitoring cMyc Loss and Cell Viability in MV4; 11 Cells. CRISPR cMyc-HiBiT MV4; 11 cells (Promega) were plated at a density of 5×10^4 cells per well in solid, white 96-well tissue culture plates (Corning Costar #3917). Following an overnight incubation, they were treated with 1-100 nM concentration of the indicated compounds and at the plotted time points, cMyc levels were determined using luminescent measurement with NanoGlo HiBiT lytic reagent (Promega). Replicate plate of all compound treatments were prepared and at identical timepoints as the protein level measurements, cell viability was measured using Cell-Titer Glo (Promega). Plates were shaken on an orbital shaker for 10-20 min before reading luminescence on a GloMax Discover Microplate Reader (Promega).

22Rv1 cells = assay: PARP cleavage immunoblot in 22Rv1 cells; type: cell-based; settings: 22Rv1, 10 nM, 24 h (MT1, MZ1 up to 48 h)
Description: Next, the inventors assessed the functional effects of SIM1 on the viability of 22Rv1 cancer cells. […] Cells died of apoptosis as indicated by prevented cleavage of PARP upon co-treatment with QVD-OPh, a pan-caspase inhibitor, and not of necroptosis, as shown by co-treatment with Necrostatin-1 (FIG. 3d and FIG. 10a).
Degradation assays. MV4; 11 cells were seeded at 1×10^6 cells/mL of 10 cm dishes 12-24 h before treatment. 22Rv1 and HEK293 cells were seeded at 2.5-6×10^5 cells/well of 6 well plates 12-24 h before treatment. Cells were treated with test compounds with and without inhibitors as indicated or an equivalent volume of DMSO and lysed at the stated time point. For lysis, cells were washed twice in ice cold PBS (Invitrogen) then lysed in 250 μL/plate for MV4; 11 cells or 80 μL/well for 22Rv1 and HEK293 cells of ice cold lysis buffer containing 50 mM Tris hydrochloride pH 7.4, 150 mM sodium chloride, 1 mM EDTA pH 7.4, 1% v/v Triton X-100, 1×Halt™ Protease Inhibitor Cocktail (ThermoFisher). […] Protein concentration was determined by BCA assay (Pierce) and the absorbance at 562 nm measured by spectrophotometry (NanoDrop ND1000). […] Bands were detected using a ChemiDoc MP imaging system (BioRad) and quantified (Image Studio Lite, version 5.2) with normalisation to β-actin and the DMSO control per time point. […]

HiBiT-BRD4 [1] = target: T1, HiBiT-BRD4 (Homo sapiens, UniProt O60885); assay: NanoBRET target engagement, permeabilized and live cells; type: cell-based
T1 construct: endogenously HiBiT tag the N-terminal genomic loci of BRD2, BRD3, or BRD4; endogenous in cells; host or cells: HEK293 stably expressing LgBiT, CRISPR/Cas9 edited
Description: Cells were treated with a fluorescent BET tracer, then incubated with the indicated compounds at various concentrations to measure competitive displacement.
(§1) NanoBRET Target Engagement and Residence Time. For target engagement experiments in live and permeabilized cells, CRISPR HiBiT-BRD4 HEK293 cells stably expressing LgBiT were plated into white 96-well tissue culture plates at a density of 2×10^4 cells/well. Cells were equilibrated for 1 h with energy transfer probes and the indicated test compound prior to NanoBRET measurements. NanoBRET tracers were prepared at a working concentration of 20× in tracer dilution buffer (12.5 mM HEPES, 31.25% PEG-400, pH 7.5). NanoBRET BRD Tracer-02 was added to cells at a final concentration of 0.5 μM. To measure NanoBRET in live cells, NanoBRET NanoGlo Substrate and Extracellular NanoLuc Inhibitor (Promega) were added according to the manufacturer's recommended protocol, and filtered luminescence was measured on a GloMax Discover luminometer equipped with 450 nm BP filter (donor) and 600 nm LP filter (acceptor) using 0.3 s integration time. To measure NanoBRET in permeabilized cells, digitonin was added to the cells to a final concentration of 50 μg/mL and Extracellular NIuc inhibitor was omitted during the detection step. […] Cells were incubated in 15 mL conical tubes with caps loosened in a tissue culture incubator for 1 h. Following incubation, cells were spun at 300×g for 5 min, washed once with Opti-MEM, spun a second time at 300×g for 5 min, then resuspended with fresh Opti-MEM before plating at 2×10^4 cells/well. NanoBRET BRD Tracer-02 was added at a final concentration of 0.5 μM cells and kinetic NanoBRET measurements were collected on a GloMax Discover. NanoBRET ratios were expressed in milliBRET units and calculated according to the equation in the NanoBRET Ubiquitination, Ternary Complex and Biosensor Experiments section.

HiBiT-BRD4 [2] = target: T1, HiBiT-BRD4; assay: NanoBRET live cell residence time; type: cell-based; settings: live cells
Description: as §1

[3] = system: VHL and full-length BRD4 WT, N140F, or N433F; assay: Kinetic NanoBRET ternary complex assay, NanoLuc-BRD4 with HaloTag-VHL; type: cell-based, human
Description: NanoBRET Ubiquitination, Ternary Complex, and Biosensor Experiments. For endogenous live cell BET:Ubiquitin and BET:VHL assays, CRISPR HiBiT-BRD2, HiBiT-BRD3, and HiBiT-BRD4 HEK293 cells stably expressing LgBiT were transfected with 2 μg of HaloTag-UBB or HaloTag-VHL vectors in 6-well plates using FuGENE HD (Promega). For full transient NanoBRET experiments with NanoLuc-BRD4 WT, N433F, or N140F mutants, HEK293 cells (8×10^5) were co-transfected with 0.02 μg NanoLuc-BRD4 and 2 μg of HaloTag-VHL vectors. For transient NanoBRET experiments with the BRD4 NL-BD1-BD2-HT biosensor containing either the WT tandem BD1-BD2 domain (AA 44-460) or containing the N433F mutation, HEK293 cells (8×10^5) were transfected with 0.02 μg biosensor plasmid and 2 μg carrier DNA. […] NanoBRET NanoGlo (Promega) substrate was added and BRET was measured two hours post-compound treatment using a GloMax Discover Microplate Reader (Promega). Dual filtered luminescence was collected with a 460/80 nm bandpass filter and a 610 nm long pass filter (acceptor, HaloTag NanoBRET ligand) using an integration time of 0.5 s. For all NanoBRET experiments, background subtracted NanoBRET ratios expressed in milliBRET units were calculated from the equation: […]

SMILES	degradation potency relative to SIM1 (BRD2 and BRD4)	measurable cellular death (MV4; 11 cells)	PARP cleavage / cell death (22Rv1 cells)	IC80 (HiBiT-BRD4 [1]; live cell format, unit given with each value, read-out: IC80 for tracer displacement) [nM]	binding to endogenous HiBiT-BRD4 (HiBiT-BRD4 [1]; permeabilized cells)	residence time on BRD4 (HiBiT-BRD4 [2])	ternary complex formation [3]
Cc1ncsc1-c1ccc(CNC(=O)[C@@H]2C[C@@H](O)CN2C(=O)[C@@H](NC(=O)COCC(C)(COCCOCCNC(=O)C[C@@H]2N=C(c3ccc(Cl)cc3)c3c(sc(C)c3C)-n3c(C)nnc32)COCCOCCNC(=O)C[C@@H]2N=C(c3ccc(Cl)cc3)c3c(sc(C)c3C)-n3c(C)nnc32)C(C)(C)C)cc1 [MN674, N,N′-(8-((2-(((S)-1-((2S,4R)-4-hydroxy-2-((4-(4-methylthiazol-5-yl)benzyl)carbamoyl)pyrrolidin-1-yl)-3,3-dimethyl-1-oxobutan-2-yl)amino)-2-oxoethoxy)methyl)-8-methyl-3,6,10,13-tetraoxapentadecane-1,15-diyl)bis(2-((S)-4-(4-chlorophenyl)-2,3,9-trimethyl-6H-thieno[3,2-f][1,2,4]triazolo[4,3-a][1,4]diazepin-6-yl)acetamide)]	comparable in degradation potencies to SIM1						
Cc1sc2c(c1C)C(c1ccc(Cl)cc1)=N[C@@H](CC(=O)NCCOCCOCCOCCOCCOCCOCCOCCNC(=O)C[C@@H]1N=C(c3ccc(Cl)cc3)c3c(sc(C)c3C)-n3c(C)nnc31)c1nnc(C)n1-2 [MT1]		not	did not cause observable PARP cleavage	100	near-identical binding affinities and IC50 values	longer residence time	not
